Data reported in the supplement of paper PMC10307832.

Key:
Assay in all cases: relative viability (nuclei count vs DMSO), 5 days (fraction); higher = more cells survive
[1] = compound: CC1=CC=C(C=C1)C(=O)CN2C3=C(CCCC3)SC2=N [Pifithrin_alpha] + N=C(N)NC(=N)NCCc1ccccc1 [Phenformin] (partner 250 µM)
Method in brief: (§1)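 Values are medians from duplicate plates. Each reflects relative viability, defined as the nuclei count of treated wells over that of vehicle wells. Lung cancer cell lines in 1536-well plates were pin-tool dosed one day after seeding with one drug alone or with a fixed anchor-drug dose plus five library-drug doses (not always all listed) in √10 steps, then fixed, stained and imaged at 4× after 5 days.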

Bemcentinib + Tozasertib = compound: Nc1nc(Nc2ccc3c(c2)CC[C@@H](N2CCCC2)CC3)nn1-c1cc2c(nn1)-c1ccccc1CCC2 [Bemcentinib] + Cc1cc(Nc2cc(N3CCN(C)CC3)nc(Sc3ccc(NC(=O)C4CC4)cc3)n2)n[nH]1 [Tozasertib] (partner 0.1 µM)
Method in brief: as §1

Axitinib + Crizotinib = compound: CNC(=O)c1ccccc1Sc1ccc2c(/C=C/c3ccccn3)n[nH]c2c1 [Axitinib] + C[C@@H](Oc1cc(-c2cnn(C3CCNCC3)c2)cnc1N)c1c(Cl)ccc(F)c1Cl [Crizotinib] (partner 1 µM)
Method in brief: as §1

Axitinib + Phenformin = compound: CNC(=O)c1ccccc1Sc1ccc2c(/C=C/c3ccccn3)n[nH]c2c1 [Axitinib] + N=C(N)NC(=N)NCCc1ccccc1 [Phenformin] (partner 250 µM)
Method in brief: as §1

| Cell Line | relative viability ([1]; first compound 1 µM) | relative viability ([1]; first compound 3.162 µM) | relative viability ([1]; first compound 10 µM) | relative viability ([1]; first compound 31.62 µM) | relative viability ([1]; first compound 100 µM) | relative viability (Bemcentinib + Tozasertib; first compound 0.04 µM) | relative viability (Bemcentinib + Tozasertib; first compound 0.1265 µM) | relative viability (Bemcentinib + Tozasertib; first compound 0.4 µM) | relative viability (Bemcentinib + Tozasertib; first compound 1.265 µM) | relative viability (Bemcentinib + Tozasertib; first compound 4 µM) | relative viability (Axitinib + Crizotinib; first compound 0.005 µM) | relative viability (Axitinib + Crizotinib; first compound 0.01581 µM) | relative viability (Axitinib + Crizotinib; first compound 0.05 µM) | relative viability (Axitinib + Crizotinib; first compound 0.1581 µM) | relative viability (Axitinib + Crizotinib; first compound 0.5 µM) | relative viability (Axitinib + Phenformin; first compound 0.005 µM) | relative viability (Axitinib + Phenformin; first compound 0.01581 µM) | relative viability (Axitinib + Phenformin; first compound 0.05 µM) | relative viability (Axitinib + Phenformin; first compound 0.1581 µM) | relative viability (Axitinib + Phenformin; first compound 0.5 µM) |
| --- | --- | --- | --- | --- | --- | --- | --- | --- | --- | --- | --- | --- | --- | --- | --- | --- | --- | --- | --- | --- |
| NCI-H1666 | 0.525 | 0.52 | 0.425 | 0.455 | 0.436 | 0.605 | 0.619 | 0.621 | 0.594 | 0.595 | 1.29 | 0.97 | 1.12 | 0.931 | 1.14 | 0.588 | 0.559 | 0.552 | 0.586 | 0.502 |
| PC-3 [JPC-3] | 0.497 | 0.482 | 0.409 | 0.47 | 0.488 | 0.852 | 0.927 | 0.897 | 0.941 | 0.863 | 1.04 | – | 0.943 | 0.95 | 1.11 | 0.491 | 0.445 | 0.493 | 0.507 | 0.539 |
| NCI-H358 | 0.353 | 0.389 | 0.357 | 0.272 | 0.344 | 0.11 | 0.129 | 0.106 | 0.0963 | 0.119 | 0.401 | 0.636 | 0.625 | 0.549 | 0.596 | 0.344 | 0.32 | 0.332 | 0.309 | 0.388 |
| NCI-H1975 | 0.394 | 0.38 | 0.373 | 0.337 | 0.364 | 0.689 | 0.881 | 1.02 | 0.672 | 0.818 | 1.13 | 1.05 | 1.15 | 0.931 | 1.08 | 0.436 | 0.43 | 0.408 | 0.391 | 0.446 |
| LC-2-ad | – | 0.601 | 0.646 | – | 0.588 | 0.451 | 0.478 | 0.451 | 0.486 | 0.442 | 0.404 | 0.483 | 0.496 | 0.424 | 0.597 | 0.578 | 0.592 | 0.586 | 0.527 | 0.498 |
| NCI-H1993 | 0.474 | 0.461 | 0.49 | 0.547 | 0.511 | 0.548 | 0.551 | 0.592 | 0.56 | 0.588 | 1.01 | 0.983 | 0.873 | 0.96 | 0.858 | 0.494 | 0.514 | 0.496 | 0.592 | 0.529 |
| CAL-12T | 0.604 | 0.558 | 0.533 | – | 0.457 | 0.302 | 0.368 | 0.307 | 0.286 | 0.329 | 0.675 | 0.75 | 0.529 | 0.834 | 0.537 | 0.567 | 0.53 | 0.559 | 0.63 | 0.504 |
| NCI-H1650 | – | 0.446 | 0.333 | 0.273 | 0.349 | 0.386 | 0.382 | 0.44 | 0.288 | 0.373 | 0.979 | 0.949 | 1.04 | 0.947 | 1.13 | 0.488 | 0.309 | 0.553 | 0.352 | 0.536 |
| H3255 | 0.364 | 0.97 | 0.384 | 0.389 | 0.342 | 0.566 | 0.678 | 0.619 | 0.782 | 0.655 | 0.975 | 0.79 | 0.764 | 0.77 | 1 | 0.368 | 0.236 | 0.335 | 0.358 | 0.377 |
| NCI-H2228 | 0.312 | 0.265 | 0.374 | 0.256 | 0.205 | 0.182 | 0.249 | 0.216 | 0.251 | 0.271 | 0.443 | 0.473 | 0.384 | 0.612 | 0.438 | 0.324 | 0.326 | 0.412 | 0.36 | 0.269 |
| NCI-H727 | 0.604 | 0.572 | 0.538 | – | 0.501 | 0.537 | 0.759 | 0.606 | 0.629 | 0.58 | 0.823 | 0.693 | 0.872 | 0.793 | 0.985 | 0.7 | 0.519 | 0.589 | 0.536 | 0.728 |
| NCI-H1355 | 0.456 | 0.401 | 0.378 | 0.351 | 0.38 | 0.529 | 0.569 | 0.562 | 0.61 | 0.538 | 1.13 | 1.06 | 1.1 | 0.948 | 1.29 | 0.457 | 0.46 | 0.497 | 0.44 | 0.43 |
| LXF-289 | 0.509 | 0.562 | 0.526 | 0.471 | 0.556 | 0.179 | 0.2 | 0.185 | 0.185 | 0.205 | 0.872 | 0.799 | 0.781 | 0.781 | 0.841 | 0.534 | 0.518 | 0.526 | 0.508 | 0.516 |
| NCI-H3122 | 0.376 | 0.356 | 0.327 | – | 0.283 | – | 0.488 | 0.402 | 0.427 | 0.381 | 0.205 | 0.276 | 0.274 | 0.314 | 0.267 | 0.347 | 0.369 | 0.397 | 0.379 | 0.415 |
| NCI-H2023 | 0.521 | 0.485 | 0.456 | – | 0.389 | 0.484 | 0.438 | 0.433 | 0.295 | 0.273 | 0.699 | 0.786 | 0.651 | 0.73 | 0.684 | 0.426 | 0.436 | 0.467 | 0.372 | 0.473 |
| NCI-H838 | 0.548 | 0.514 | 0.554 | 0.412 | 0.444 | 0.281 | 0.268 | 0.264 | 0.262 | 0.291 | 0.852 | 0.945 | 0.874 | 0.886 | 0.953 | 0.697 | 0.509 | 0.763 | 0.564 | 0.654 |
| COR-L 105 | 0.525 | 0.484 | 0.55 | 0.436 | 0.403 | 0.306 | 0.358 | 0.317 | 0.336 | 0.345 | 0.841 | 0.965 | 0.86 | 0.776 | 0.968 | 0.605 | 0.4 | 0.527 | 0.388 | 0.547 |
